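Cultured in 96-well plates, cells were exposed to test compound for 48 hours across five concentrations. Abbreviation: GI50, concentration required for 50% inhibition of growth. TGI: total growth inhibition.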
How the values were obtained:
Assay in all cases: NCI anticancer screen, dose series, 48 h
A549 NSCLC = system: A549 NSCLC
RXF 393 renal = system: RXF 393 renal
SF-268 CNS = system: SF-268 CNS
U251 CNS = system: U251 CNS
MOLT-4 leukemia = system: MOLT-4 leukemia
NCI/ADR-RES ovarian = system: NCI/ADR-RES ovarian
RPMI-8226 leukemia = system: RPMI-8226 leukemia
M14 melanoma = system: M14 melanoma
MCF7 breast = system: MCF7 breast
SK-MEL-5 melanoma = system: SK-MEL-5 melanoma
CAKI-1 renal = system: CAKI-1 renal
T-47D breast = system: T-47D breast
SK-OV-3 ovarian = system: SK-OV-3 ovarian
COLO 205 colon = system: COLO 205 colon
K-562 leukemia = system: K-562 leukemia
SR leukemia = system: SR leukemia
SW-620 colon = system: SW-620 colon
HL-60(TB) leukemia = system: HL-60(TB) leukemia
SNB-75 CNS = system: SNB-75 CNS
NCI-H23 lung = system: NCI-H23 lung
CCRF-CEM leukemia = system: CCRF-CEM leukemia
MDA-MB-435 = system: MDA-MB-435
HOP-62 NSCLC = system: HOP-62 NSCLC
786-0 renal = system: 786-0 renal
SK-MEL-2 melanoma = system: SK-MEL-2 melanoma
OVCAR-4 ovarian = system: OVCAR-4 ovarian
ACHN renal = system: ACHN renal
MALME-3M melanoma = system: MALME-3M melanoma
SK-MEL-28 melanoma = system: SK-MEL-28 melanoma
OVCAR-5 ovarian = system: OVCAR-5 ovarian
UACC-62 melanoma = system: UACC-62 melanoma
IGROV1 ovarian = system: IGROV1 ovarian
NCI-H460 lung = system: NCI-H460 lung
OVCAR-8 ovarian = system: OVCAR-8 ovarian
SN12C renal = system: SN12C renal
HOP-92 NSCLC = system: HOP-92 NSCLC
MDA-MB-231 breast = system: MDA-MB-231 breast
SNB-19 CNS = system: SNB-19 CNS
PC-3 prostate = system: PC-3 prostate
KM12 colon = system: KM12 colon
EKVX NSCLC = system: EKVX NSCLC
OVCAR-3 ovarian = system: OVCAR-3 ovarian
SF-539 CNS = system: SF-539 CNS
DU-145 prostate = system: DU-145 prostate
UACC-257 melanoma = system: UACC-257 melanoma
NCI-H522 lung = system: NCI-H522 lung
HT29 colon = system: HT29 colon
SF-295 CNS = system: SF-295 CNS
HCC-2998 colon = system: HCC-2998 colon
HCT-15 colon = system: HCT-15 colon
HS 578T breast = system: HS 578T breast
NCI-H226 lung = system: NCI-H226 lung
TK-10 renal = system: TK-10 renal
LOX IMVI melanoma = system: LOX IMVI melanoma
A498 renal = system: A498 renal
UO-31 renal = system: UO-31 renal
HCT-116 colon = system: HCT-116 colon
BT-549 breast = system: BT-549 breast

CC1=C2C(=O)c3ccccc3C2=C(C)S(=O)(=O)O1
TGI (A549 NSCLC): > 10 µM
TGI (RXF 393 renal): > 10 µM
TGI (SF-268 CNS): > 10 µM
TGI (U251 CNS): > 10 µM
TGI (MOLT-4 leukemia): > 10 µM
TGI (NCI/ADR-RES ovarian): > 10 µM
TGI (RPMI-8226 leukemia): > 10 µM
TGI (M14 melanoma): > 10 µM
TGI (MCF7 breast): > 10 µM
TGI (SK-MEL-5 melanoma): > 10 µM
TGI (CAKI-1 renal): > 10 µM
TGI (T-47D breast): > 10 µM
TGI (SK-OV-3 ovarian): > 10 µM
TGI (COLO 205 colon): > 10 µM
TGI (K-562 leukemia): > 10 µM
TGI (SR leukemia): > 10 µM
TGI (SW-620 colon): > 10 µM
TGI (HL-60(TB) leukemia): > 10 µM
TGI (SNB-75 CNS): > 10 µM
TGI (NCI-H23 lung): > 10 µM
TGI (CCRF-CEM leukemia): > 10 µM
TGI (MDA-MB-435): > 10 µM
TGI (HOP-62 NSCLC): > 10 µM
TGI (786-0 renal): > 10 µM
TGI (SK-MEL-2 melanoma): > 10 µM
TGI (OVCAR-4 ovarian): > 10 µM
TGI (ACHN renal): > 10 µM
TGI (MALME-3M melanoma): > 10 µM
TGI (SK-MEL-28 melanoma): > 10 µM
TGI (OVCAR-5 ovarian): > 10 µM
TGI (UACC-62 melanoma): > 10 µM
TGI (IGROV1 ovarian): > 10 µM
TGI (NCI-H460 lung): > 10 µM

CC(C)c1ccc(C(=O)Nc2sc3c(CN(C)C)c(O)ccc3c2C(N)=O)cc1
GI50 (OVCAR-8 ovarian): 3.07 µM
TGI (OVCAR-8 ovarian): > 100 µM
GI50 (MOLT-4 leukemia): 2.32 µM
TGI (MOLT-4 leukemia): 8.51 µM
GI50 (NCI/ADR-RES ovarian): 2.64 µM
TGI (NCI/ADR-RES ovarian): > 100 µM
GI50 (SN12C renal): 2.2 µM
TGI (SN12C renal): > 100 µM
GI50 (HOP-92 NSCLC): 3.48 µM
TGI (HOP-92 NSCLC): > 100 µM
GI50 (MDA-MB-231 breast): 3.27 µM
TGI (MDA-MB-231 breast): > 100 µM
GI50 (SK-OV-3 ovarian): 6.72 µM
TGI (SK-OV-3 ovarian): > 100 µM
GI50 (K-562 leukemia): 0.409 µM
TGI (K-562 leukemia): 4.55 µM
GI50 (SR leukemia): 2.89 µM
TGI (SR leukemia): 8.79 µM
GI50 (SNB-19 CNS): 3.23 µM
TGI (SNB-19 CNS): > 100 µM
GI50 (HL-60(TB) leukemia): 1.74 µM
TGI (HL-60(TB) leukemia): 4.38 µM
GI50 (PC-3 prostate): 2.55 µM
TGI (PC-3 prostate): > 100 µM
GI50 (SNB-75 CNS): 2.09 µM
TGI (SNB-75 CNS): > 100 µM
GI50 (CCRF-CEM leukemia): 2.2 µM
TGI (CCRF-CEM leukemia): 9.37 µM
GI50 (KM12 colon): 0.728 µM
TGI (KM12 colon): > 100 µM
GI50 (OVCAR-5 ovarian): 2.66 µM
TGI (OVCAR-5 ovarian): > 100 µM
GI50 (IGROV1 ovarian): 2.02 µM
TGI (IGROV1 ovarian): > 100 µM
GI50 (EKVX NSCLC): 6.28 µM
TGI (EKVX NSCLC): > 100 µM

O=C1C(Cl)=C(Nc2ccccc2)C(=O)c2ccccc21
GI50 (OVCAR-3 ovarian): 1.67 µM
TGI (OVCAR-3 ovarian): 3.15 µM
GI50 (SF-539 CNS): 5.41 µM
TGI (SF-539 CNS): 17.5 µM
GI50 (A549 NSCLC): 15.5 µM
TGI (A549 NSCLC): 42.2 µM
GI50 (RXF 393 renal): 1.6 µM
TGI (RXF 393 renal): 2.99 µM
GI50 (SF-268 CNS): 1.69 µM
TGI (SF-268 CNS): 3.27 µM
GI50 (U251 CNS): 1.8 µM
TGI (U251 CNS): 3.24 µM
GI50 (OVCAR-8 ovarian): 1.71 µM
TGI (OVCAR-8 ovarian): 3.2 µM
GI50 (DU-145 prostate): 9.34 µM
TGI (DU-145 prostate): 22 µM
GI50 (MOLT-4 leukemia): 3.34 µM
TGI (MOLT-4 leukemia): > 100 µM
GI50 (UACC-257 melanoma): 1.83 µM
TGI (UACC-257 melanoma): 3.3 µM
GI50 (NCI/ADR-RES ovarian): 2.11 µM
TGI (NCI/ADR-RES ovarian): 4.89 µM
GI50 (SN12C renal): 1.82 µM
TGI (SN12C renal): 3.59 µM
GI50 (RPMI-8226 leukemia): 2.28 µM
TGI (RPMI-8226 leukemia): 6.84 µM
GI50 (NCI-H522 lung): 1.66 µM
TGI (NCI-H522 lung): 3.77 µM
GI50 (M14 melanoma): 1.88 µM
TGI (M14 melanoma): 3.57 µM
GI50 (MCF7 breast): 1.5 µM
TGI (MCF7 breast): 3.53 µM
GI50 (HOP-92 NSCLC): 1.28 µM
TGI (HOP-92 NSCLC): 2.64 µM
GI50 (HT29 colon): 2.27 µM
TGI (HT29 colon): 4.72 µM
GI50 (SF-295 CNS): 10.6 µM
TGI (SF-295 CNS): 24.1 µM
GI50 (MDA-MB-231 breast): 1.58 µM
TGI (MDA-MB-231 breast): 3.3 µM
GI50 (HCC-2998 colon): 2.15 µM
TGI (HCC-2998 colon): 4.29 µM
GI50 (HCT-15 colon): 1.26 µM
TGI (HCT-15 colon): 2.92 µM
GI50 (SK-MEL-5 melanoma): 1.5 µM
TGI (SK-MEL-5 melanoma): 2.89 µM
GI50 (HS 578T breast): 3.05 µM
TGI (HS 578T breast): 30.5 µM
GI50 (CAKI-1 renal): 1.73 µM
TGI (CAKI-1 renal): 3.13 µM
GI50 (NCI-H226 lung): 2.18 µM
TGI (NCI-H226 lung): 6.3 µM
GI50 (TK-10 renal): 11 µM
TGI (TK-10 renal): > 100 µM
GI50 (SK-OV-3 ovarian): 5.43 µM
TGI (SK-OV-3 ovarian): 18.7 µM
GI50 (COLO 205 colon): 1.88 µM
TGI (COLO 205 colon): 3.77 µM
GI50 (K-562 leukemia): 0.648 µM
TGI (K-562 leukemia): > 100 µM
GI50 (SR leukemia): 0.992 µM
TGI (SR leukemia): > 100 µM
GI50 (LOX IMVI melanoma): 0.856 µM
TGI (LOX IMVI melanoma): 2.86 µM
GI50 (SW-620 colon): 1.09 µM
TGI (SW-620 colon): 2.92 µM
GI50 (SNB-19 CNS): 2.22 µM
TGI (SNB-19 CNS): 5.07 µM
GI50 (HL-60(TB) leukemia): 1.77 µM
TGI (HL-60(TB) leukemia): 5.31 µM
GI50 (PC-3 prostate): 3.61 µM
TGI (PC-3 prostate): 22.1 µM
GI50 (SNB-75 CNS): 1.83 µM
TGI (SNB-75 CNS): 12 µM
GI50 (NCI-H23 lung): 1.92 µM
TGI (NCI-H23 lung): 4.25 µM
GI50 (A498 renal): 8.93 µM
TGI (A498 renal): 35.3 µM
GI50 (CCRF-CEM leukemia): 2.37 µM
TGI (CCRF-CEM leukemia): > 100 µM
GI50 (MDA-MB-435): 1.8 µM
TGI (MDA-MB-435): 3.27 µM
GI50 (HOP-62 NSCLC): 12.8 µM
TGI (HOP-62 NSCLC): 26.8 µM
GI50 (786-0 renal): 6.57 µM
TGI (786-0 renal): 19.6 µM
GI50 (SK-MEL-2 melanoma): 1.87 µM
TGI (SK-MEL-2 melanoma): 3.69 µM
GI50 (OVCAR-4 ovarian): 1.63 µM
TGI (OVCAR-4 ovarian): 3 µM
GI50 (UO-31 renal): 1.41 µM
TGI (UO-31 renal): 2.97 µM
GI50 (ACHN renal): 1.63 µM
TGI (ACHN renal): 3.13 µM
GI50 (HCT-116 colon): 1.83 µM
TGI (HCT-116 colon): 3.53 µM
GI50 (KM12 colon): 6.23 µM
TGI (KM12 colon): > 100 µM
GI50 (MALME-3M melanoma): 1.92 µM
TGI (MALME-3M melanoma): 3.72 µM
GI50 (SK-MEL-28 melanoma): 1.97 µM
TGI (SK-MEL-28 melanoma): 3.53 µM
GI50 (OVCAR-5 ovarian): 1.94 µM
TGI (OVCAR-5 ovarian): 3.65 µM
GI50 (UACC-62 melanoma): 1.72 µM
TGI (UACC-62 melanoma): 3.3 µM
GI50 (IGROV1 ovarian): 1.75 µM
TGI (IGROV1 ovarian): 3.27 µM
GI50 (BT-549 breast): 1.7 µM
TGI (BT-549 breast): 3.09 µM
GI50 (NCI-H460 lung): 27.2 µM
TGI (NCI-H460 lung): > 100 µM
GI50 (EKVX NSCLC): 2.21 µM
TGI (EKVX NSCLC): 5.38 µM
